We go through 61 compounds from patent publication US12187706B2, “NLRP3 modulators” (INNATE TUMOR IMMUNITY, INC., priority 2019, dated 2025).

The target of the experiment is T1, NLRP3 (Homo sapiens, UniProt Q96P20).
T1 construct: host or cells: PMA-differentiated THP-1 cells
T1 sequence (Q96P20 whole entry): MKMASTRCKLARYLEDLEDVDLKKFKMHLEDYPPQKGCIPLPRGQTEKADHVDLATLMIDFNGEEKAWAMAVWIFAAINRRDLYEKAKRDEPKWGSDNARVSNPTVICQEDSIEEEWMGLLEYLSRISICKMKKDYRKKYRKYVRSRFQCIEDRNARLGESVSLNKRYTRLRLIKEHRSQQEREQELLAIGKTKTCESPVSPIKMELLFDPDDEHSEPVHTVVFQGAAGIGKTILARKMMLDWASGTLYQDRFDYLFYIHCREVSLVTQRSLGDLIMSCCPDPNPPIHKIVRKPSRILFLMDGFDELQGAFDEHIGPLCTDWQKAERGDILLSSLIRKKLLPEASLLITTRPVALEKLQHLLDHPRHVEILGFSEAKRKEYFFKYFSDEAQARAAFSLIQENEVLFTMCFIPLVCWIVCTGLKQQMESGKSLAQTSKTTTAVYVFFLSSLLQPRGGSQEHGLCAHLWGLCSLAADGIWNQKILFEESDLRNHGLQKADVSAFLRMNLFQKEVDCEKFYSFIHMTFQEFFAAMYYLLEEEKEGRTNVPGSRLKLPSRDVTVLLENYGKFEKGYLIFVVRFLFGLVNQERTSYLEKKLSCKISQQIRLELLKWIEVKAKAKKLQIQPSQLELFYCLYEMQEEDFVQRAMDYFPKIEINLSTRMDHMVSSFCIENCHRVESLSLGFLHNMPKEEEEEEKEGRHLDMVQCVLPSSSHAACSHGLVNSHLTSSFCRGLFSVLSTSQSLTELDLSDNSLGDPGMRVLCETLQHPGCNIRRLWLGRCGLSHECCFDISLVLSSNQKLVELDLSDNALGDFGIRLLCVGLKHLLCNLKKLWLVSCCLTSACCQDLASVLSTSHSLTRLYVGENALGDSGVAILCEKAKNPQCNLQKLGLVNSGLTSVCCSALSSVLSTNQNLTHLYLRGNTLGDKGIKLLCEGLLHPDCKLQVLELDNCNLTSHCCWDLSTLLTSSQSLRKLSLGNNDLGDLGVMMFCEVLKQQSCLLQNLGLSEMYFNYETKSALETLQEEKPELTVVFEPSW
Nature of the experiment: Measurement of IL-1β production in PMA-differentiated THP-1 cells (NLRP3 hIL1B). Format: cell-based. How it is done:
Measurement of IL-1β Production in PMA-Differentiated THP-1 Cells
THP-1 cells were purchased from the American Type Culture Collection and sub-cultured according to instructions from the supplier. Prior to experiments, cells were cultured in RPMI 1640 containing 10% heat inactivated FBS, penicillin (100 units/ml) and streptomycin (100 μg/ml), and maintained in log phase prior to experimental setup. Prior to the experiment THP-1 were treated with PMA (Phorbol 12-myristate 13-acetate) (10 μg/ml) for 24 hours. The day of the experiment the media was removed and attaching cells were treated with trypsin for 2 minutes, cells were then collected, washed with PBS (phosphate buffer saline), spin down, resuspended in 2% heat inactivated FBS with RPMI at a concentration of 1×10^6 cells/ml, and 100 μl was plated in a 96 well plate. Compounds were dissolved in dimethyl sulfoxide (DMSO) and added to the culture medium to achieve desired concentration (e.g. 100, 30, 10, 3, 1, 0.3 or 0.1 μM). Cells were incubated with compounds for 4 hours. Cell free supernatant was collected and the production of IL-1β was evaluated by ELISA. A vehicle only control was run concurrently with each experiment. Final DMSO concentration was 1%.
Measurement of IL-1β Production in PMA-Differentiated THP-1 Cells (Alternative Procedure)
THP-1 cells were purchased from the American Type Culture Collection and sub-cultured according to instructions from the supplier. Prior to experiments, cells were cultured in RPMI 1640 containing 10% heat inactivated FBS, penicillin (100 units/ml), streptomycin (100 μg/ml), HEPES (10 mM) and sodium pyruvate (1 mM) and maintained in log phase prior to experimental setup. Prior to the experiment, THP-1 cells were treated with PMA (Phorbol 12-myristate 13-acetate) (20 μg/ml) overnight. The day of the experiment, the media was removed and attached cells were treated with trypsin for 2 minutes, cells were then collected, washed with PBS (phosphate buffer saline), pelleted by centrifugation and resuspended in 2% heat inactivated FBS with RPMI at a concentration of 50,000 cells/well in a 384 well plate. Cell free supernatant was collected and the production of IL-1β was evaluated by ELISA. Compounds were dissolved in dimethyl sulfoxide (DMSO) and added to the culture medium to achieve desired concentration (e.g. 100, 30, 10, 3, 1, 0.3 or 0.1 μM). Cells were incubated with compounds for 2 hours. A vehicle only control was run concurrently with each experiment. Final DMSO concentration was 1%.
Measurement of IL-1β Production—hTRF Protocol (Second Alternative Procedure)
Serial dilutions of compounds in DMSO were added to low volume 384 well plates at 100 nl/well using an ECHO 550 acoustic dispenser (Labcyte) to achieve final starting concentration of 10 μM in assay.
THP-1 cells in RPMI (Gibco, 11875) media with 10% FBS at a density of 1×10^6 cell/ml in a T175 flask were treated with a final concentration of phorbol 12-myristate 13-acetate (PMA) (Sigma, P1585) of 50 ng/ml overnight at 37° C. at 5% CO2 for differentiation. Cells were harvested the next day after rinsing well with dPBS using 0.5% trypsin. A cell solution was prepared of 1×10^6 cells/ml for 50,000 cells in 50 μl/well in RPMI media with 2% FBS. Cells were plated using a multichannel pipette onto the compound dilutions in Greiner, 384 well, black clear bottom tissue culture treated plates (781090). The plates were incubated in 37° C. incubator at 5% CO2 for 2 hours.
After the 2 hour incubation, the cell plates were spun in the centrifuge for 5 minutes at 1200 rpm. Using the Felix (CyBio), 8 μl of the supernatant was transferred to 384 well, low volume, white proxy plates. (Perkin Elmer, 6008230). A human IL1beta hTRF kit was used to analyze the supernatant (CISBIO, 62HIL1BPEG). The kit instructions were followed for preparing the IL1Beta standard curve and then the antibodies from the kit were diluted 1:40 rather than 1:20 as kit instructed.
`Nc1nc(NC2CCS(=O)(=O)CC2)c2ccc(-c3ccn[nH]3)cc2n1` [Example 55] returned a half-maximal effective concentration (EC50) of 19700 nM. To `N#CCCNc1nc(N)nc2cc(-c3ccn[nH]3)ccc12` [Example 58] belongs 700 nM. Next, `Nc1nc(NCc2ccnnc2)c2ccc(-c3ccn[nH]3)cc2n1` [Example 60]: 3490 nM; `Nc1nc(NCc2ncco2)c2ccc(-c3ccn[nH]3)cc2n1` [Example 61]: 220 nM; `Nc1nc(NC(CO)c2cccnc2)c2ccc(-c3ccn[nH]3)cc2n1` (stereo not shown) [Example 62]: 1250 nM. Next, `Nc1nc(N[C@H]2CC[C@@H](CO)C2)c2ccc(-c3ccn[nH]3)cc2n1` [Example 63]: 1750 nM; `C[C@@H](O)[C@@H](CO)Nc1nc(N)nc2cc(-c3ccn[nH]3)ccc12` [Example 64]: 3730 nM. Compound `Nc1nc(NC2(CO)CC2)c2ccc(-c3ccn[nH]3)cc2n1` [Example 65] gave a 50% effective concentration (EC50) of 250 nM. Compound `Nc1nc(N[C@H]2CCC[C@H]2O)c2ccc(-c3ccn[nH]3)cc2n1` [Example 66] came in with an EC50 of 740 nM. Next, `Nc1nc(N[C@H]2CCCC[C@H]2O)c2ccc(-c3ccn[nH]3)cc2n1` [Example 67]: 2260 nM; `Nc1nc(N[C@@H]2CCCC[C@@H]2O)c2ccc(-c3ccn[nH]3)cc2n1` [Example 68]: 1100 nM.

In turn, `Nc1nc(NC[C@@H](O)CO)c2ccc(-c3ccn[nH]3)cc2n1` [Example 69] came in with an EC50 of 1860 nM.

Turning to `Nc1nc(NC[C@H](O)CO)c2ccc(-c3ccn[nH]3)cc2n1` [Example 70], the concentration for a half-maximal effect (EC50) amounted to 800 nM. Compared with the last compound, the EC50 is about 2.3-fold lower. Next, `Nc1nc(NCc2ccno2)c2ccc(-c3ccn[nH]3)cc2n1` [Example 71]: 640 nM; `COCC(O)CNc1nc(N)nc2cc(-c3ccn[nH]3)ccc12` (stereo not shown) [Example 72]: 530 nM. To `CC(C)(CO)CNc1nc(N)nc2cc(-c3ccn[nH]3)ccc12` [Example 73] belongs 230 nM; to `Nc1nc(NC(CO)CO)c2ccc(-c3ccn[nH]3)cc2n1` [Example 74], 780 nM.

Regarding `Cn1cncc1CNc1nc(N)nc2cc(-c3ccn[nH]3)ccc12` [Example 75], the concentration for a half-maximal effect (EC50) amounted to 5520 nM. `COCc1noc(CNc2nc(N)nc3cc(-c4ccn[nH]4)ccc23)n1` [Example 76] yielded an EC50 of 760 nM. Next, `Nc1nc(NCC(F)F)c2ccc(-c3ccn[nH]3)cc2n1` [Example 78]: 630 nM. To `Cc1cnc(CNc2nc(N)nc3cc(-c4ccn[nH]4)ccc23)cn1` [Example 80] belongs 710 nM; to `Cc1noc(C)c1CNc1nc(N)nc2cc(-c3ccn[nH]3)ccc12` [Example 81], 1200 nM; to `NC(=O)CC(Nc1nc(N)nc2cc(-c3ccn[nH]3)ccc12)c1cccnc1` (stereo not shown) [Example 82], 3650 nM. Next, `CC(CO)(CO)Nc1nc(N)nc2cc(-c3ccn[nH]3)ccc12` [Example 83]: 2410 nM; `CNc1nc(N)nc2cc(-c3ccn[nH]3)ccc12` [Example 84]: 280 nM. As for `Nc1nc(NCCCCO)c2ccc(-c3ccn[nH]3)cc2n1` [Example 85], a half-maximal effect (EC50) was put at 230 nM. With `Nc1nc(NCCCCCO)c2ccc(-c3ccn[nH]3)cc2n1` [Example 86], the 50% effective concentration (EC50) turned out to be 220 nM. The EC50 values of the last two compounds are within 1.5-fold of each other. Next, `Nc1nc(NCc2cnc[nH]2)c2ccc(-c3ccn[nH]3)cc2n1` [Example 87]: 1630 nM; `Nc1nc(NCC(F)(F)CO)c2ccc(-c3ccn[nH]3)cc2n1` [Example 88]: 220 nM. Next, `CC(C)(O)CCNc1nc(N)nc2cc(-c3ccn[nH]3)ccc12` [Example 89]: 460 nM. `C[C@]1(O)CC[C@@H](Nc2nc(N)nc3cc(-c4ccn[nH]4)ccc23)CC1` [Example 90] yielded a concentration for a half-maximal effect (EC50) of 830 nM. To `CC(C)(CO)CCCNc1nc(N)nc2cc(-c3ccn[nH]3)ccc12` [Example 91] belongs 1300 nM; to `COCCCNc1nc(N)nc2cc(-c3ccn[nH]3)ccc12` [Example 94], 180 nM. Next, `CCCCONc1nc(N)nc2cc(-c3ccn[nH]3)ccc12` [Example 95]: 630 nM; `COCCNc1nc(N)nc2cc(-c3ccn[nH]3)ccc12` [Example 102]: 210 nM. Next, `CCOCCNc1nc(N)nc2cc(-c3ccn[nH]3)ccc12` [Example 103]: 370 nM.

For the compound `Nc1nc(N[C@@H]2CCCOC2)c2ccc(-c3ccn[nH]3)cc2n1` [Example 104], the concentration for a half-maximal effect (EC50) is 390 nM. Next, `Nc1nc(NC2CCCOC2)c2ccc(-c3ccn[nH]3)cc2n1` (stereo not shown) [Example 105]: 1980 nM; `Nc1nc(NCC#CCO)c2ccc(-c3ccn[nH]3)cc2n1` [Example 106]: 500 nM; `Nc1nc(Nc2ccccc2)c2ccc(-c3ccn[nH]3)cc2n1` [Example 111]: 400 nM. `Nc1nc(Nc2cn[nH]c2)c2ccc(-c3ccn[nH]3)cc2n1` [Example 112] showed a concentration giving a half-maximal response (EC50) of 240 nM. To `Nc1nc(Nc2ccon2)c2ccc(-c3ccn[nH]3)cc2n1` [Example 113] belongs 2230 nM. To `Nc1nc(Nc2cnoc2)c2ccc(-c3ccn[nH]3)cc2n1` [Example 114] belongs 370 nM; to `Nc1nc(Nc2ccn(CCO)n2)c2ccc(-c3ccn[nH]3)cc2n1` [Example 115], 18000 nM; to `Nc1nc(Nc2cc(CCO)[nH]n2)c2ccc(-c3ccn[nH]3)cc2n1` [Example 116], 500 nM. To `Nc1nc(NCCc2ccccn2)c2ccc(-c3cc[nH]n3)cc2n1` [Example 119] belongs 490 nM; to `Nc1nc(N2CCCOCC2)c2ccc(-c3cc[nH]n3)cc2n1` [Example 120], 680 nM; to `Nc1nc(N[C@@H]2CCOC2)c2ccc(-c3cc[nH]n3)cc2n1` [Example 121], 1850 nM. In the case of `Nc1nc(NCCc2ccccn2)c2c(F)cc(-c3cc[nH]n3)cc2n1` [Example 122], the midpoint of the response, the EC50, lay at 1110 nM. Next, `Nc1nc(N2CCCOCC2)c2c(F)cc(-c3cc[nH]n3)cc2n1` [Example 123]: 2860 nM; `Nc1nc(NCc2cc[nH]n2)c2c(F)cc(-c3cc[nH]n3)cc2n1` [Example 124]: 600 nM. As to `Nc1nc(NCCO)c2c(F)cc(-c3cc[nH]n3)cc2n1` [Example 126], the EC50 stood at 760 nM.

Regarding `Nc1nc(N[C@@H]2CCOC2)c2c(F)cc(-c3cc[nH]n3)cc2n1` [Example 127], the concentration for a half-maximal effect (EC50) is 1220 nM. To `Nc1nc(NCc2cncnc2)c2c(F)cc(-c3cc[nH]n3)cc2n1` [Example 128] belongs 830 nM.

Take `Nc1nc(NCc2cc[nH]n2)c2c(Cl)cc(-c3cc[nH]n3)cc2n1` [Example 129]: the EC50 was found to be 370 nM. Next, `COc1cc(-c2cc[nH]n2)cc2nc(N)nc(NCCO)c12` [Example 131]: 5610 nM; `COc1cc(-c2cc[nH]n2)cc2nc(N)nc(NCc3cc[nH]n3)c12` [Example 132]: 2180 nM; `COc1cc(-c2cc[nH]n2)cc2nc(N)nc(N[C@@H]3CCOC3)c12` [Example 133]: 650 nM. In the case of `COc1cc(-c2cc[nH]n2)cc2nc(N)nc(NCCc3ccccn3)c12` [Example 134], a half-maximal effect (EC50) was put at 1740 nM.

Compound `COc1cc(-c2cc[nH]n2)cc2nc(N)nc(NCc3cncnc3)c12` [Example 135] gave an EC50 of 1440 nM.

As for `Cc1cc(-c2cc[nH]n2)cc2nc(N)nc(NCc3cncnc3)c12` [Example 136], the EC50 was 1060 nM. This EC50 and that of the compound before are within 1.5-fold of each other.

In general, EC50 refers to the midpoint of the concentration-response curve.
